Laboratory results reported in PMC6222902, “DPP-IV Inhibitory Potentials of Flavonol Glycosides Isolated from the Seeds of Lens culinaris: In Vitro and Molecular Docking Analyses” (Molecules : A Journal of Synthetic Chemistry and Natural …, 2018).

Legend:
DPP-IV [1] = system: DPP-IV; parameters: method as in PMID 22410395; details: cited from earlier work
human recombinant DPP-IV = biological target: T1, human recombinant DPP-IV (Homo sapiens, UniProt P27487); experiment: DPP-IV inhibitor screening assay kit (Cayman), fluorogenic substrate Gly-Pro-AMC; format: biochemical; details: mean ± SD of three independent experiments
T1 construct: purchased Cayman Chemical
Procedure: To the best of our knowledge, no prior studies examined the in vitro DPP-IV-inhibitory effects of 1–3, although the protein-ligand complex for 3 was examined via molecular docking analysis, using Discovery Studio 3.0 and Meta-Pocket (http://projects.biotec.tu-dresden.de/metapocket/).
DPP-IV activity was analyzed using a DPP-IV inhibitor screening assay kit (Cayman Chemical, Ann Arbor, MI, USA), which provided a fluorescence-based method for screening DPP-IV inhibitors. The assay used the fluorogenic substrate, Gly-Pro-Aminomethylcoumarine (AMC), to measure DPP-IV activity. Cleavage of the peptide bond by DPP released the free AMC group, resulting in fluorescence that could be analyzed using an excitation wavelength of 350–360 nm and an emission wavelength of 450–465 nm.
The tested compounds were initially dissolved in DMSO to produce 50 mM stock solution, and subsequently diluted to the required concentrations using DMSO, and then they were added to a 96-well plate in final volume of 10 μL and a final concentration of 50 μM. The assay procedure is described briefly according to the manufacturer’s protocols as follows: Diluted assay buffer (30 μL) and diluted enzyme solution (10 μL) were added to the 96-well plate containing 10 μL of solvent (blank) or solvent-dissolved test compounds. The reaction was initiated by adding 50 μL of a diluted substrate solution, and the plate was incubated for 30 min at 37 °C. After incubation, fluorescence with an excitation wavelength of 350 nm and an emission wavelength of 450 nm was monitored using a plate reader (TECAN, Männedorf, Switzerland). The percent inhibition was expressed as ([DPP-IV level of vehicle–treated control–DPP-IV level of test samples]/DPP-IV level of vehicle-treated control) × 100.

DPP-IV [2] = details: DPP-IV Glo Protease Assay kit (Promega); cited from earlier work

T1 sequence (P27487 whole entry): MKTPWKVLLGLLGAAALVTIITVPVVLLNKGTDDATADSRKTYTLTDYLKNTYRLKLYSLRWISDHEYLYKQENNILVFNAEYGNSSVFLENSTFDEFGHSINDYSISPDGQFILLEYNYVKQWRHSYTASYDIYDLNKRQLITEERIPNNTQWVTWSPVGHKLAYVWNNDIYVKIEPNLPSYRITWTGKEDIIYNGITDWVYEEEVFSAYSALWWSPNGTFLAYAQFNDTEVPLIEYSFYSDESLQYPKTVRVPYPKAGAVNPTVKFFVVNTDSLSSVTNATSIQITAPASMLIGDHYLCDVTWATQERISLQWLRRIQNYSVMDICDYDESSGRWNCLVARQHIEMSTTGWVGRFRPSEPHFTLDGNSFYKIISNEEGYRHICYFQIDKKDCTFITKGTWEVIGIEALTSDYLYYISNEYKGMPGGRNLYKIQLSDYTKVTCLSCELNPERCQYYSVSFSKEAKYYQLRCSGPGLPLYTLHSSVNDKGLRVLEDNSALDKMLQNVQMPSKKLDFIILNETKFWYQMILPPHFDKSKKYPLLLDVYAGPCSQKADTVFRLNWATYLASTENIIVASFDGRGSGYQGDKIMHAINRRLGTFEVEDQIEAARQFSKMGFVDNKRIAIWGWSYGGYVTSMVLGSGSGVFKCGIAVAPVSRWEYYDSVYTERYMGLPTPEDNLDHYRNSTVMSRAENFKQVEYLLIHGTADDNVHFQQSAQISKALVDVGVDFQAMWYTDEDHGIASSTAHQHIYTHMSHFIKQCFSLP

SMILES	in vivo bioactivities as a DPP-IV inhibitor (DPP-IV [1])	IC50 (human recombinant DPP-IV)	IC50 (DPP-IV [2])
O=c1c(O[C@@H]2O[C@H](CO)[C@@H](O)[C@H](O)[C@H]2O)c(-c2ccc(O)c(O)c2)oc2cc(O)cc(O)c12 [isoquercitrin]	strong in vivo bioactivities	–	–
CC1OC(OCC2OC(Oc3c(-c4ccc(O)cc4)oc4cc(OC5OC(C)C(O)C(O)C5O)cc(O)c4c3=O)C(OC3OC(CO)C(O)C(O)C3O)C(O)C2O)C(O)C(O)C1O (stereo not drawn) [Compound 2, kaempferol-3-O-β-gulcopyranosyl-(1→2)-[α-rhamnopyranosyl(1→6)]-β-galactopyranosyl-7-O-α-rhamnopyranoside]	–	36.5 ± 0.78 µM	–
C[C@@H]1O[C@@H](O[C@H]2[C@H](Oc3cc(O)c4c(c3)O[C@H](c3ccc(O)cc3)CC4=O)O[C@H](CO)[C@@H](O)[C@@H]2O)[C@H](O)[C@H](O)[C@H]1O [naringin]	strong in vivo bioactivities	–	–
CC1OC(OCC2OC(Oc3c(-c4ccc(O)cc4)oc4cc(OC5OC(C)C(O)C(O)C5O)cc(O)c4c3=O)C(O)C(O)C2O)C(O)C(O)C1O (stereo not drawn) [Compound 3, kaempferol-3-O-α-rhamnosyl(1→6)-O-β-galactopyranoside-7-O-α-rhamnopyranoside]	–	37 ± 1.4 µM	–
O=c1c(O)c(-c2ccc(O)cc2)oc2cc(O)cc(O)c12 [Compound 4, kaempferol]	–	51.7 ± 4.83 µM	0.49 ± 0.02 µM
CC1OC(Oc2cc(O)c3c(=O)c(OC4OC(CO)C(O)C(O)C4OC4OC(CO)C(O)C(O)C4O)c(-c4ccc(O)cc4)oc3c2)C(O)C(O)C1O (stereo not drawn) [Compound 1, kaempferol-3-O-β-gulcopyranosyl-(1→2)-β-galactopyranosyl-7-O-α-rhamnopyranoside]	–	27.9 ± 1.29 µM	–
